The target of one assay is human TLR9 (hTLR9) (Homo sapiens (Human), UniProt Q9NR96). Briefly: TLR9 antagonist assay in HEK-Blue-hTLR9 cells (SEAP reporter, ODN 2006 agonist). The assay is classed as cell-based. Particulars: inhibition of hTLR9 dependent SEAP production, hTLR9 agonist such as ODN 2006, 1 μM, read-out: hTLR9 antagonism IC50. The source says: HEK-Blue™-hTLR9 cells were obtained from InvivoGen Inc. and used to determine test compound antagonism of human TLR9 (hTLR9) driven responses. HEK-Blue™-hTLR9 cells are designed for studying the stimulation of human TLR9 by monitoring the activation of NF-kB. As described by the manufacturer, “HEK-Blue™-hTLR9 cells were obtained by co-transfection of the hTLR9 gene and an optimized secreted embryonic alkaline phosphatase (SEAP) reporter gene into HEK293 cells. The SEAP reporter gene is placed under the control of the IFN-b minimal promoter fused to five NF-kB and AP-1 binding sites. Stimulation with a TLR9 ligand activates NF-kB and AP-1 which induces the production of SEAP. Levels of SEAP can be easily determined with QUANTI-Blue™ a detection medium that turns purple/blue in the presence of alkaline phosphatase”. […]
Sequence of human TLR9 (hTLR9) (Q9NR96 26-1032): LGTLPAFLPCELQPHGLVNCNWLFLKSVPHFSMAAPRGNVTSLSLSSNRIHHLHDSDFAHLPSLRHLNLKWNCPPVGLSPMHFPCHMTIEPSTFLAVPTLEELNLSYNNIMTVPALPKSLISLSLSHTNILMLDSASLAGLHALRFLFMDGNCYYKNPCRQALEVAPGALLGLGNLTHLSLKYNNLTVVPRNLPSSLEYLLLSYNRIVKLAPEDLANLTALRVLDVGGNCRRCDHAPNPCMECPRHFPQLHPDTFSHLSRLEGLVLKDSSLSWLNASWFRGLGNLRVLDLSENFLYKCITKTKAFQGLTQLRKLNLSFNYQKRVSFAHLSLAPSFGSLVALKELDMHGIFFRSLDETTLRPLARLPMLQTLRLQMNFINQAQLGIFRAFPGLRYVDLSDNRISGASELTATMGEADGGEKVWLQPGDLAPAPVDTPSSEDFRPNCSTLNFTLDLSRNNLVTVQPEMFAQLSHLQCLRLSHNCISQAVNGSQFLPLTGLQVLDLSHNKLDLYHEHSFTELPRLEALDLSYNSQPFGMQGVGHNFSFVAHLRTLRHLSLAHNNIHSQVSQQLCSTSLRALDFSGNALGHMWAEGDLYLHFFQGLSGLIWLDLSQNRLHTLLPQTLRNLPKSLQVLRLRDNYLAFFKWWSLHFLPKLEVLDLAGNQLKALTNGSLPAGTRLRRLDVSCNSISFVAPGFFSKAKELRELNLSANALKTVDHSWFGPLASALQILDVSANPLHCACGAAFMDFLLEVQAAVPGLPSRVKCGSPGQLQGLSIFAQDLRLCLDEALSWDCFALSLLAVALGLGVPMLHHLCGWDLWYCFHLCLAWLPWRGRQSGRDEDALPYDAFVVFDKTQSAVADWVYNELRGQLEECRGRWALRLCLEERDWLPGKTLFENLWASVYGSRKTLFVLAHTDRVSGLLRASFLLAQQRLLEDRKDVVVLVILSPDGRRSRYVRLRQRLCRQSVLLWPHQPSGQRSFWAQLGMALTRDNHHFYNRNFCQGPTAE
Invivogen's QUANTI-Blue™ was prepared following the manufacturer's instructions. […] SEAP levels were determined using a spectrophotometer at 620 nm.
The concentration dependent inhibition of hTLR9 dependent SEAP production was expressed as the concentration of compound which produced half the maximal level of SEAP induced by the hTLR agonist alone. Percent activity was calculated for each observation using the formula: % activity=((observed O.D.−background O.D.)/(agonist only O.D.−background O.D.))*100. […]

The target of another assay is TLR9 (Mus musculus (Mouse), UniProt Q9EQU3). As to the kind of experiment: In vivo TLR knockdown: serum IL-12 after CpG ODN 1668 TLR9 agonist injection in C57Bl/6J mice. Particulars: male C57Bl/6J mice; single intraperitoneal dose; CpG ODN 1668 i.p. 1 hr later; serum IL-12 ELISA 3 hours post agonist. As to the method:
The Effects of Test Articles on Toll-Like Receptor (TLR) Knockdown Following a Single Intraperitoneal Dose to Male C57Bl/6 Mice.
Toll-Like Receptor (TLR) knockdown effect of test articles was evaluated in a C57Bl/6J mouse. Primary end points included a terminal blood collection for analysis of cytokine production in response to CpG-DNA TLR9 agonist injection. Male C57Bl/6J mice, at ˜8 weeks of age from Jackson Laboratories were used. Test groups were 3 mice per treatment group and the groups were administered test article in a series of descending doses within the range of 400 μg to 10 μg. Test article treatment was dosed at T=0 hr by intraperitoneal injection. Agonist (CpG ODN 1668) treatment was dosed one hour later, T=1 hr by intraperitoneal injection. Necropsy was performed 3 hours post agonist treatment, T=4 hr. Blood samples were collected into serum separator tubes, allowed to clot at room temperature for at least 20 minutes, centrifuged at ambient temperature at 3000 g for 10 minutes, and the serum was extracted. ELISA was performed to determine murine IL-12 levels following manufacture's protocol (BioLegend Inc.). Serum IL-12 levels were calculated and plotted versus administered dose of antagonist and inhibitory dose at 50% (ID50) was determined.
For orientation: ELISA stands for enzyme-linked immunosorbent assay.

Sequence of TLR9 (Q9EQU3 26-1032): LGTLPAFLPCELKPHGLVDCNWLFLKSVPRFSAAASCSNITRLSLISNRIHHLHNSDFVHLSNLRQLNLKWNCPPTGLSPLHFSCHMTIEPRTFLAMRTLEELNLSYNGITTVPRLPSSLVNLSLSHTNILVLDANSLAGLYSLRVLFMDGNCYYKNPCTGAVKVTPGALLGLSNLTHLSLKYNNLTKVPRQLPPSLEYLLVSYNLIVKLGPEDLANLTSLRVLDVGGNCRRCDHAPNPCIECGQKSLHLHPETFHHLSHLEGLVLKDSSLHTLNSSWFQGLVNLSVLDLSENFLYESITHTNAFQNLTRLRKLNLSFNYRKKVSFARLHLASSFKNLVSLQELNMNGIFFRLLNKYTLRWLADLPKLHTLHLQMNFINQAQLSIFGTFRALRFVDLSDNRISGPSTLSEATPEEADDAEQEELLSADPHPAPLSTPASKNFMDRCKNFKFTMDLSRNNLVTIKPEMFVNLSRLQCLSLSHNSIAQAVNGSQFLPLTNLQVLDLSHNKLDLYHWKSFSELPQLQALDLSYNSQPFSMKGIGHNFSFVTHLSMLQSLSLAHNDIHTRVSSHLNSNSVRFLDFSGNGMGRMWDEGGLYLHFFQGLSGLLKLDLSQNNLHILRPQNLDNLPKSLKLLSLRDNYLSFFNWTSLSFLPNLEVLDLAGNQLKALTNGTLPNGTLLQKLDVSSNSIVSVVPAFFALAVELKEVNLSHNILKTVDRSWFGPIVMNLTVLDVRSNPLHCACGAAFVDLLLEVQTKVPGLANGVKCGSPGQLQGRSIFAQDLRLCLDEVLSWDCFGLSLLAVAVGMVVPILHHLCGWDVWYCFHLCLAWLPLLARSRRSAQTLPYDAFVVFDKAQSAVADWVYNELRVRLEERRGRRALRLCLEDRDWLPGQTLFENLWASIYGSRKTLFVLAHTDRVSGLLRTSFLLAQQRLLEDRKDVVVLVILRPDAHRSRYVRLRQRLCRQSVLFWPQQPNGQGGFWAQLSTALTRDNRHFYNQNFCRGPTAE

As for `CN1CCN(CCn2c(O)nc3c(NCCN4CCOCC4)nc(-c4ccccc4)nc32)CC1` [Example 63], the IC50 (in general, the midpoint of a concentration-inhibition curve) at human TLR9 (hTLR9) amounted to 497 nM. For `CN1CCN(CCNc2nc(-c3ccccc3)nc3c2nc(O)n3CCN2CCOCC2)CC1` [Example 57], the IC50 on human TLR9 (hTLR9) came to 271 nM. For the same compound, the “In vivo TLR antagonism ID50 (inhibitory dose at 50% of serum IL-12)” value at TLR9 was 348 µg.

The values above are taken from patent publication US9353115B2, “Immune system modulators” (JANUS BIOTHERAPEUTICS, INC., priority 2011, dated 2016).
